Laboratory results as given in patent publication US11491245B2, “Gadolinium chelate compounds for use in magnetic resonance imaging” (BAYER PHARMA AKTIENGESELLSCHAFT, priority 2015, dated 2022).
“Also recorded” adds a separate entry of the source.

Tests used:
[1] = Relaxivity measurements at 1.41 T; type: physicochemical
Experimental: Relaxivity measurements at 1.41 T were performed using a MiniSpec mq60 spectrometer (Bruker Analytik, Karlsruhe, Germany) operating at a resonance frequency of 60 MHz and a temperature of 37° C. The T1 relaxation times were determined using the standard inversion recovery (IR) method with a fixed relaxation delay of at least 5×T1. The variable inversion time (TI) was calculated automatically by the standard software of the MiniSpec mq60 (8 steps). The T2 measurements were done by using a Carr-Purcell-Meiboom-Gill (CPMG) pulse sequence, applying a relaxation delay of at least 5×T1.
Each relaxivity measurement was performed using three different Gd concentrations (3 concentrations between 0.05 and 2 mM). The T1 and T2 relaxation times of the example compounds 1-10 were measured in different media for example in water, fetal bovine serum (FBS, Sigma, F7524) and human plasma.
Human plasma preparation: For each experiment fresh blood was taken from a volunteer using 10 mL citrate-tubes (Sarstedt S-Monovette 02.1067.001, 10 mL, Citrate). The 10 mL citrate-tubes were carefully inverted 10 times to mix blood and anticoagulant and centrifuged for 15 minutes at 1811 g at room temperature (Eppendorf, Centrifuge 5810R).
The relaxivities ri (where i=1, 2) were calculated on the basis of the measured relaxation rates Ri in water and plasma: Ri=Ri(0)+ri[CGd], where Ri(0) represent the relaxation rate of the respective solvent and CGd the concentration of the compound normalized to the Gadolinium. The Gadolinium concentrations of the investigated solutions were verified by Inductively Coupled Plasma Mass Spectroscopy (ICP-MS Agilent 7500a, Waldbronn, Germany).

[2] = Relaxivity measurements at 3.0 T; type: physicochemical; settings: 37° C., normalized to Gd, average ± standard deviation
Experimental: Relaxivity measurements at 3.0 T were performed with a whole body 3.0 T MRI Scanner (Philips Intera, Philips Healthcare, Hamburg, Germany) using a knee-coil (SENSE-Knee-8, Philips Healthcare, Hamburg, Germany). The sample tubes (CryoTubetm Vials, Thermo Scientific 1.8 mL, Roskilde, Denmark) were positioned in 3 rows of 4 and 5 tubes in a plastic holder in a box filled with water. The temperature was adjusted to 37° C. For the MRI sequence, the shortest possible echo-time (TE) with 7.46 milliseconds was used. The inversion times were chosen to optimize the sequence to measure T1 values corresponding to the estimated T1 range of all relaxation times of contrast media containing solutions. The following inversion times (TIs) were applied: 50, 100, 150, 200, 300, 500, 700, 1000, 1400, 2100, 3200, and 4500 milliseconds. The sequence was run with a constant relaxation delay of 3.4 seconds after the registration of the last echo (variable TR in the range from 3450 to 7900 milliseconds). For details of the fit procedure, see Rohrer et. al. (Invest. Radiol. 2005; 40, 11: 715-724). The experimental matrix of the phantom measurement was 320×320.
The relaxivities were evaluated using three different concentrations of each compound (3 concentrations between 0.05 and 2 mM).
The T1 relaxation times of the Example compounds 1-6 were measured in water and human plasma. Human plasma preparation: For each experiment fresh blood was taken from a volunteer using 10 mL citrate-tubes (Sarstedt S-Monovette 02.1067.001, 10 mL, Citrate). The 10 mL citrate-tubes were carefully inverted 10 times to mix blood and anticoagulant and centrifuged for 15 minutes at 1811 g at room temperature (Eppendorf, Centrifuge 5810R).
The relaxivities ri (where i=1, 2) were calculated on the basis of the measured relaxation rates Ri in water and plasma: Ri=Ri(0)+ri[CGd], where Ri(0) represent the relaxation rate of the respective solvent and CGd the concentration of the compound normalized to the Gadolinium (Table 2).

[3] = Excretion and residual organ gadolinium concentration; type: in vivo, male rats (Han-Wistar); settings: male rats, 0.1 mmol Gd/kg i.v.
Experimental: The excretion and organ distribution of Example 3 were determined in male rats (Han-Wistar, 100-110 g, n=3). The compound was administered as a sterile aqueous solution (54 mmol Gd/L) as a bolus in the tail vein of the animals. The dose was 0.1 mmol Gd/kg. Urine was collected in the following time periods 0-1 h, 1-3 h, 3-6 h, 6-24 h, 1-2 d and 2-5 d post injection and feces 0-1 d, 1-2 d and 2-5 d post injection. As a control, 3 animals were treated in the same way with Gadovist®, a low molecular weight contrast agent. On day 7 the animals were sacrificed and the following organs were excised: blood, liver, kidney, spleen, heart, lung, brain, mesenteric lymph nodes, muscle, skin, stomach, gut, bone and bone marrow. The remaining carcass was freeze dried and ground to a fine powder. The Gd concentration in the organs and the carcass was determined by ICP-MS (ICP-MS Agilent 7500a, Waldbronn, Germany). The Example 3 is excreted quickly via the kidneys. After 3 h 95.8%±3.4% of the injected dose was found in urine and 96.9%±3.7% after 5 days. About 1.4%±0.6% was excreted via the feces. Less than 0.5% of the administered dose was present in the body 7 days after the injection. The individual organs contained less than 0.03% of the injected dose, except the kidney which is the excretion organ.

Water solubility = type: physicochemical; settings: 10 mM Tris-HCl buffer, 20° C.
Experimental: The water solubility of the compounds was determined at room temperature (20° C.) in 0.5 mL buffer solution (10 mM Tris-HCl) in the microcentrifuge tubes (Eppendorf, 2.0 mL safe-lock caps). The solid compound was added stepwise to the buffer solution. The suspension was mixed using a shaker (Heidolph Reax 2000) and treated 5 min in an ultrasound bath (Bandelin, Sonorex Super RK255H) The suspension was stored at room temperature (20° C.) over night and final Gadolinium concentration was determined by inductively coupled plasma mass spectrometry (ICP-MS).

[4] = Off target activity screen (LeadProfilingScreen®, radioligand binding and enzyme assays); settings: commercial radioligand binding and enzyme assays
[5] = Gadolinium release after the addition of zinc and phosphate (transmetallation); settings: phosphate buffer pH 7.00, 2.5 mmol/L gadolinium complex, 2.5 mmol/L ZnCl2, 37° C., up to 72 h, FIG. 2
Experimental: The technique is based on measurement of the evolution of the water proton paramagnetic longitudinal relaxation rate in phosphate buffer (pH 7.00, 26 mmol/L, KH2PO4 Merck, Hessen, Germany) containing 2.5 mmol/L gadolinium complex and 2.5 mmol/L ZnCl2 Sigma-Aldrich, Munich, Germany). […] The mixture was vigorously stirred, and 300 μL were taken out for the relaxometric study at 0 min, 60 min, 120 min, 3 h, 4 h, 5 h, 24 h, 48 h and 72 h. The measurements were performed on a MiniSpec mq60 spectrometer (Bruker Analytik, Karlsruhe, Germany) at 60 MHz and 37° C.

CC(C(=O)NCC(=O)NCC(CNC(=O)CNC(=O)C(C)N1CCN(CC(=O)[O-])CCN(CC(=O)[O-])CCN(CC(=O)[O-])CC1)(CNC(=O)CNC(=O)C(C)N1CCN(CC(=O)[O-])CCN(CC(=O)[O-])CCN(CC(=O)[O-])CC1)CNC(=O)CNC(=O)C(C)N1CCN(CC(=O)[O-])CCN(CC(=O)[O-])CCN(CC(=O)[O-])CC1)N1CCN(CC(=O)[O-])CCN(CC(=O)[O-])CCN(CC(=O)[O-])CC1.[Gd+3].[Gd+3].[Gd+3].[Gd+3] (stereo not shown) [Example 3, Tetragadolinium [4,10-bis(carboxylatomethyl)-7-{3,6,12,15-tetraoxo-16-[4,7,10-tris-(carboxylatomethyl)-1,4,7,10-tetraazacyclododecan-1-yl]-9,9-bis({[({2-[4,7,10-tris-(carboxylatomethyl)-1,4,7,10-tetraazacyclododecan-1-yl]propanoyl}amino)acetyl]-amino}methyl)-4,7,11,14-tetraazaheptadecan-2-yl}-1,4,7,10-tetraazacyclododecan-1-yl]acetate]
r1 FBS ([1]; fetal bovine serum, 1.41 T, 37° C., normalized to Gd): 11.5 L/mmol/s
r1 human plasma ([1]; human plasma, 1.41 T, 37° C., normalized to Gd): 11.8 L/mmol/s
relaxivity relative to reference compound 1 ([1]; see Example A): approximately 2 fold
r1 water ([1]; water, 1.41 T, 37° C., normalized to Gd): 10.1 L/mmol/s
r1 human plasma ([2]; human plasma): 10.2 ± 0.2 L/mmol/s
r1 water ([2]; water): 9.2 ± 0.3 L/mmol/s
Feces excretion 0-1 d post injection [3]: 1.13 ± 0.62% Dose
Feces excretion 1-2 d post injection [3]: 0.10 ± 0.02% Dose
Feces excretion 2-5 d post injection [3]: 0.13 ± 0.01% Dose
Total recovery [3]: 98.8 ± 3.1% Dose
Urine excretion 0-1 h post injection [3]: 90.36 ± 4.4% Dose
Urine excretion 1-3 h post injection [3]: 5.43 ± 1.04% Dose
Urine excretion 1-2 d post injection [3]: 0.14 ± 0.01% Dose
Urine excretion 2-5 d post injection [3]: 0.34 ± 0.03% Dose
Urine excretion 3-6 h post injection [3]: 0.46 ± 0.38% Dose
Urine excretion 6-24 h post injection [3]: 0.17 ± 0.02% Dose
administered dose present in the body 7 days after the injection [3]: Less than 0.5%
excreted via the feces [3]: About 1.4%
Σ organs and carcass 7 d post injection [3]: 0.49 ± 0.01% Dose
injected dose in the individual organs (except the kidney) ([3]; 7 days): less than 0.03%
injected dose found in urine after 3 h ([3]; cumulative): 95.8%
injected dose found in urine after 5 days ([3]; cumulative): 96.9%
Solubility (Water solubility): >1400 mmol Gd/L
off target activity [4]: no critical finding
stability against transmetallation (relative longitudinal relaxation rate R1p(t)/R1p(0) versus time) [5]: comparable to the high stability macrocyclic Reference compound 1 (Gadovist®); also recorded: comparable to the high stability of Reference compound 1 (Gadovist®)
